Test results from patent publication US20250163116A1, “NEW METHOD TO TREAT INFECTIOUS DISEASES” (INSERM (INSTITUT NATIONAL DE LA SANTÉ ET DE LA RECHERCHE …, priority 2022, published 2025).

Assays:
[1] = test system: HDMECs infected with Nm 2C4.3; assay: Integrity of HDMEC monolayers infected with N. meningitidis (VE-cadherin at intercellular junctions, immunofluorescence); assay type: cell-based, human; settings: 1 μg/mL added 30 min after initiation of Nm infection, 2 h 30
Procedure: FIG. 1. Exogenous ANGPTL4 exerts protective effects on dermal microvascular endothelial cells infected by N. meningitidis. A. HDMECs were infected with Nm 2C4.3 for 30 min and treated with 1 μg/mL of recombinant human ANGPTL4 for 2 h 30. Cells were fixed and stained for cellular actin, VE-cadherin and DAPI and analyzed by fluorescent microscopy. Quantifications of VE-cadherin enrichment at intercellular junctions and of intercellular spaces area were performed on 30 fields with Image J software. Kruskal-Wallis test ** P<0.001; P<0.0001. B. HDMEC were either uninfected or infected with N. meningitidis 2C4.3 for 30 min and treated with 1 μg mL−1 of recombinant human ANGPTL4, its N-terminal portion (nANGPTL4) or its C-terminal portion (cANGPTL4) for 2 h 30. Caspase-3/7 reagent was added to detect apoptosis in real time over 9 h using the IncuCyte® Live-Cell Analysis System
FIG. 2: Vascular protection is conferred by the N-terminal part of ANGPTL4. A, Schematic representation of ANGPTL4 structure. ANGPTL4 contains a N-terminal portion (nANGPTL4, aa 26-164) linked to a C-terminal portion (cANGPTL4, aa 164-406) by a cleavable linker. nANGPTL4 contains a highly conserved lipoprotein lipase (LPL) binding domain (aa 44-55), two cysteines on position 76 and 80 involved in protein oligomerization and a coiled-coil domain (aa 100-143). The C-terminal portion encodes a fibrinogen-like domain. B, HDMECs were infected with Nm 2C4.3 for 30 min and treated with 1 μg/mL of recombinant human ANGPTL4, nANGPTL4 or cANGPTL4 for 2 h 30. Cells were fixed and stained for cellular actin, VE-cadherin and DAPI and analyzed by fluorescent microscopy. B. Quantifications of VE-cadherin enrichment at intercellular junctions and of intercellular spaces area were performed on 30 fields with Image J software. Kruskal-Wallis test ** P<0.001, *** P<0.0001 of four independent experiments performed in triplicate.
FIG. 3: Vascular protection is conferred by a novel binding motif (aa 66-80) present in the N-terminal part of ANGPTL4. A, the indicated peptides were derived from nANGPTL4. B, HDMECs were infected with Nm 2C4.3 for 30 min and treated with 1 μg/mL of each peptides. Quantifications of VE-cadherin enrichment at intercellular junctions was performed on 30 fields with Image J software.
FIG. 4: Vascular protection is conferred by interaction of nANGPTL4 with Syndecan-4. A, HDMECs were infected with Nm 2C4.3 for 30 min and treated with 1 μg/mL of recombinant human ANGPTL4, nANGPTL4 or cANGPTL4 in the absence or in the presence of anti-SDC4 antibody for 2 h 30. Cells were fixed and stained for cellular actin, VE-cadherin and DAPI and analysed by fluorescent microscopy. Quantifications of VE-cadherin enrichment at intercellular junctions and of intercellular spaces area were performed on 30 fields with Image J software. Kruskal-Wallis test ** P<0.001, **** P<0.00001, ns1 P=0.2172; ns2 P>0.999 of four independent experiments performed in triplicate. B, HDMECs were transfected with small interfering RNA (siRNA) against SDC4 or non-targeting siRNA controls for 48 h, infected with Nm 2C4.3 for 30 min and treated with 1 μg/mL of recombinant human ANGPTL4, for 2 h 30. Quantifications of VE-cadherin enrichment at intercellular junctions and of intercellular spaces area were performed on 30 fields with Image J software. Kruskal-Wallis test ** P<0.001, *** P<0.0001, of two independent experiments performed in triplicate.
The day of infection, a suspension of the bacteria from an overnight culture on GCB agar plate was adjusted to OD600=0.05 and incubated for 2 h at 37° C. in a pre-warmed cell culture medium. Cells were infected with bacteria at a multiplicity of infection (MOI) of 100 bacteria per cell (OD=0.1) for 30 minutes, washed twice to remove non-adherent bacteria and infection was allowed to proceed for various periods of time. Cells were then washed and fixed in 4% paraformaldehyde for immunofluorescence analysis. […]

[2] = test system: Balb/c mice challenged with LPS; assay: LPS-induced endotoxemia (sepsis) in mice; assay type: in vivo; settings: LPS 5 mg kg-1 i.p.; 2 μg/mouse i.v.
Procedure: FIG. 9: ANGPTL4 protects against LPS-induced endotoxemia by preventing vascular dysfunction and organ failure. A-B, Balb/c mice received LPS (5 mg kg-1, i.p.); 30 min after LPS challenge, mice received recombinant human ANGPTL4 (2 μg, intravenously), or vehicle as a control. A, A schematic representation of the protocol used. B, Survival curve (n=16 mice per group): **** P<0.0001; two-sided log-rank Mantel-Cox survival analysis. C,D, Balb/c mice received LPS (5 mg kg-1, i.p.); 30 min after LPS challenge, mice received nANGPTL4 (2 μg, intravenously), or vehicle as a control. C, A schematic representation of the protocol used. D, Survival curve (n=6 mice per group): ** P=0.0033; two-sided log-rank Mantel-Cox survival analysis. E, F, Balb/c mice received LPS (5 mg kg-1, i.p.); 30 min after LPS challenge, mice received Peptide 1 (2 μg, intravenously), or vehicle as a control. E, A schematic representation of the protocol used. F, Survival curve (n=6 mice per group): * P=0.0163; two-sided log-rank Mantel-Cox survival analysis. G, Balb/c mice received LPS (5 mg kg-1. i.p.): 30 min after LPS challenge, mice received recombinant human peptide P9 (2 μg. intravenously). or vehicle as a control. Survival curves (n=6 mice per group). *** P<0.001: two-sided log-rank Mantel-Cox survival analysis. H. Balb/c mice received LPS (4 mg kg-1. i.p.) together with anti-ANGPTL4 blocking antibody (10 μg kg-1. i.v) or vehicle as a control. 18 h after LPS challenge. mice were perfused with Evans blue for 1 h. were killed and brain were extracted. Quantification analysis of Evans blue extravasation (n=4 mice per group). Bars and error bars show the mean±s.e.m., respectively, from two independent experiments: *** P<0.001: NS, not significant (P>0.05) one-way ANOVA Tukey's multiple comparison test.
Female BALB/c mice, obtained from Janvier Labs, 9-10 weeks of age, were administered LPS at 5 mg/kg intraperitoneally and survival was monitored for 72 h (n=12 per group). BALB/c mice were randomly divided into 2 groups: LPS and LPS+Angptl4. Angptl4 (2 μg/mice) or vehicle (physiological saline solution) was administered intravenously 30 min after LPS challenge. In some experiments, blood serum, kidney and lung were collected at 18 h post-LPS challenge. Kidney and lungs were fixed in 4% PFA, embedded in paraffin, and 5-μm sections were cut from each block and stained with H&E. The stained sections were observed and acquired using a slide scanner (Lamina, Perkin Elmer). Analysis of the images was performed using ImageJ software (NIH).
Since severe endothelial dysfunction, leading to dysregulation of hemostasis and vascular dysfunction, is central to the progression to organ failure during sepsis, we analysed whether ANGPTL4 could play a protective role in sepsis, using a lipopolysaccharide (LPS)-induced endotoxemia (FIG. 9A). After LPS-challenge (5 mg kg-1, i.p.), all mice died within two days (FIG. 9B).

[3] = test system: SCID mice grafted with human skin infected with Nm 2C4.3; assay: Vascular lesions in SCID mice grafted with human skin infected with N. meningitidis (4 h); assay type: in vivo; settings: data not shown
Procedure: FIG. 7: ANGPTL4 reduces signs of thrombosis, vascular injury and inflammation. A-D, SCID mice grafted with human skins were infected intravenously with Nm 2C4.3 wild-type strain (5×10^6 bacteria) or left uninfected. A period of 30 min or 2 h after bacterial challenge, mice received 1 μg of recombinant human ANGPTL4, nANGPTL4 or cANGPTL4 intravenously or the vehicle as a control. Mice were killed at 4 h post-challenge. This experiment was performed twice with n=3 or 4 mice per group, using skin from two different donors. A, A schematic representation of the protocols used in vivo. B, Control bacteraemia 4 h post-infection (mean±s.e.m.). C, Bacterial colonization within the skin grafts as assessed by immunofluorescence analysis was quantified using ImageJ software as the ratio between bacterial surface colonization and the lumen surface of the vessels. A total of 30-50 vessels per mouse were analysed. Error bars show mean±s.e.m. D, Thrombus formation within the skin grafts was assessed by immunofluorescence analysis and quantified using ImageJ as the ratio between thrombus surfaces and the lumen surface of the vessels. A total of 30-50 vessels per mouse were analysed. Error bars show mean±s.e.m.; *** P<0.0001; ns P=0.0541 two-tailed Student's t-test.
Six-week-old CB17/Icr-Prkdcscid female mice were obtained from Janvier Labs. Human skin tissues were obtained from adult patients undergoing plastic surgery in the Service de Chirurgie Plastique et Reconstructive of the Groupe Hospitalier Saint-Joseph. […] Experimental procedures were performed as previously described in accordance with the guidelines of the Institut National de la Santé et de la Recherche Médicale and conformed to the European ethical legislation (Directive 2010/63/EU). The experimental protocol was approved by the Animal Experimentation Ethics Committee of the Université Paris Descartes (consent forms CEEA34.O.J.L.039.12 and 2018012515596498). […]. A skin flap was created and a full thickness human skin graft was placed onto the wound bed. The transplants were held in place with 6-0 non-absorbable monofilament suture materials, and the flap was then sutured above the transplant. Grafted mice were infected 4-6 weeks after human skin transplantation. N. meningitidis was grown overnight at 37° C. on GCB agar plates prepared without iron and supplemented with 15 μM deferoxamine (Desferal, Novartis). Bacterial colonies were harvested and cultured in RPMI media with 1% BSA medium and 0.06 μM deferoxamine with gentle agitation to reach the exponential phase of growth. Bacteria were then resuspended in physiological saline solution. Mice were infected intravenously with 200 μl (5×10^6 bacteria) of this bacterial suspension. A 10 mg dose of human holotransferrin (R&D Systems) was administered intraperitoneally just before infection. Mice were killed at 4 h after infection. Human skin grafts were carefully collected using a sterile cutter. The tissue was washed in PBS and fixed overnight at 4° C. in 4% paraformaldehyde in phosphate buffer. After washing in phosphate buffer, the specimens were embedded in OCT medium and then frozen at −80° C. Sections of the dermis (7 μm thick) were immobilized on Superfrost Plus microscope slides and subjected to immunofluorescence analysis. Sections were incubated with the primary antibodies for 1 h in PBS/3% BSA then DAPI was added to Alexa-conjugated secondary antibodies for 1 h. After additional washing, coverslips were mounted in glycergel (Dako) and were further analysed using a slide scanner (Lamina, Perkin Elmer). Analysis of the images was performed using ImageJ software (NIH). […]

SALERRLSACGS (Peptide P10)
protective effect on monolayer integrity (adherens junctions, cell detachment) of infected HDMECs [1]: no effect | sepsis-associated mortality / survival rate [2]: did not significantly increased the survival rate

WDEMNVLAHGLLQLGQGLREHAERTRSQLSALERRLSACGSACQGT (Peptide P1)
protective effect on monolayer integrity (adherens junctions, cell detachment) of infected HDMECs [1]: sufficient to prevent loss of adherens junctions and cell detachment induced by infection as efficiently as the full-length protein | sepsis-associated mortality / survival rate [2]: reduced sepsis-associated mortality rate as efficiently as the full-length protein

LSALERRLSACGSAC (Peptide P9)
protective effect on monolayer integrity (adherens junctions, cell detachment) of infected HDMECs [1]: completely inhibited infection-induced damages | sepsis-associated mortality / survival rate [2]: reduced sepsis-associated mortality rate as efficiently as the full-length protein

B1: rhANGPTL8: recombinant human ANGPTL8 (9983-AN) from R&D Systems (protein, UniProt Q6UXH0 22-198, looked up)
Angiopoietin-like protein 8: APMGGPELAQHEELTLLFHGTLQLGQALNGVYRTTEGRLTKARNSLGLYGRTIELLGQEVSRGRDAAQELRASLLETQMEEDILQLQAEATAEVLGEVAQAQKVLRDSVQRLEVQLRSAWLGPAYREFEVLKAHADKQSHILWALTGHVQRQRREMVAQQHRLRQIQERLHTAALPA
protective effect on monolayer integrity (adherens junctions, cell detachment) of infected HDMECs [1]: no protective effect | protective effects on vascular alteration, thrombosis or the release of inflammatory markers [3]: no protective effects

B2: rhANGPTL3: recombinant human ANGPTL3 (3829-AN) from R&D Systems (protein, UniProt Q9Y5C1 17-460, looked up)
Angiopoietin-related protein 3: SRIDQDNSSFDSLSPEPKSRFAMLDDVKILANGLLQLGHGLKDFVHKTKGQINDIFQKLNIFDQSFYDLSLQTSEIKEEEKELRRTTYKLQVKNEEVKNMSLELNSKLESLLEEKILLQQKVKYLEEQLTNLIQNQPETPEHPEVTSLKTFVEKQDNSIKDLLQTVEDQYKQLNQQHSQIKEIENQLRRTSIQEPTEISLSSKPRAPRTTPFLQLNEIRNVKHDGIPAECTTIYNRGEHTSGMYAIRPSNSQVFHVYCDVISGSPWTLIQHRIDGSQNFNETWENYKYGFGRLDGEFWLGLEKIYSIVKQSNYVLRIELEDWKDNKHYIEYSFYLGNHETNYTLHLVAITGNVPNAIPENKDLVFSTWDHKAKGHFNCPEGYSGGWWWHDECGENNLNGKYNKPRAKSKPERRRGLSWKSQNGRLYSIKSTKMLIHPTDSESFE
protective effect on monolayer integrity (adherens junctions, cell detachment) of infected HDMECs [1]: no protective effect | protective effects on vascular alteration, thrombosis or the release of inflammatory markers [3]: no protective effects
